Laboratory results reported in the supplement of paper PMC8671470.

Each molecule was assayed on NOMO-1 (assay: cell viability (% survival relative to DMSO control, bortezomib = 0%); higher = less cytotoxic). Details: 10000 nM; 72 h.
Procedure, shortened: (§1)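 Fifteen myeloid leukaemia cell lines were exposed to compounds at 1, 10, 100, 1000 or 10000 nM in 384-well plates for 72 h at 37 °C and 5% CO2. Viability was read by CellTiter-Glo luminescence and normalised, with vehicle as 100% and a 10 µM positive control as 0%. Values are percent survival averaged over duplicates.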

| Structure (SMILES) | cell viability [%] |
| --- | --- |
| c1cc(-c2cnn3cc(-c4ccc(OCCN5CCCCC5)cc4)cnc23)ccn1 [Dorsomorphin] | 48.5 |
| CN(Cc1cnc2nc(N)nc(N)c2n1)c1ccc(C(=O)N[C@@H](CCC(=O)O)C(=O)O)cc1 [Methotrexate] | 30.8 |
| CN(CCOc1ccc(Cc2sc(O)nc2O)cc1)c1ccccn1 [Rosiglitazone] | 102 |

Each molecule was assayed on MV4-11 in the same assay as above. Details: 1 nM; 72 h.
Procedure, shortened: as §1

| Structure (SMILES) | cell viability [%] |
| --- | --- |
| O=c1cc(N2CCOCC2)oc2c(-c3ccccc3)cccc12 | 131 |
| O=C1C(SCCO)=C(SCCO)C(=O)c2ccccc21 | 96 |
| Cn1cc(-c2ccncc2)c(-c2ccc(OCc3ccc4ccccc4n3)cc2)n1 | 101 |
| O=C(O)CC[N+](=O)[O-] [3-nitropropionic acid] | 105 |
| O=C(/C=C/c1ccc(O)c(O)c1)OCCc1ccccc1 [Caffeic acid phenethyl ester] | 94.5 |
| CCN(CC)C(=S)SSC(=S)N(CC)CC [Disulfiram] | 94.1 |
| c1cc(-c2cnn3cc(-c4ccc(OCCN5CCCCC5)cc4)cnc23)ccn1 [Dorsomorphin] | 89.9 |
| CN(Cc1cnc2nc(N)nc(N)c2n1)c1ccc(C(=O)N[C@@H](CCC(=O)O)C(=O)O)cc1 [Methotrexate] | 112 |
| CN(CCOc1ccc(Cc2sc(O)nc2O)cc1)c1ccccn1 [Rosiglitazone] | 107 |

Same assay, conditions: 10 nM; 72 h

| Structure (SMILES) | cell viability [%] |
| --- | --- |
| O=c1cc(N2CCOCC2)oc2c(-c3ccccc3)cccc12 | 120 |
| O=C1C(SCCO)=C(SCCO)C(=O)c2ccccc21 | 113 |
| Cn1cc(-c2ccncc2)c(-c2ccc(OCc3ccc4ccccc4n3)cc2)n1 | 118 |
| O=C(O)CC[N+](=O)[O-] [3-nitropropionic acid] | 115 |
| O=C(/C=C/c1ccc(O)c(O)c1)OCCc1ccccc1 [Caffeic acid phenethyl ester] | 90.6 |
| CCN(CC)C(=S)SSC(=S)N(CC)CC [Disulfiram] | 114 |
| c1cc(-c2cnn3cc(-c4ccc(OCCN5CCCCC5)cc4)cnc23)ccn1 [Dorsomorphin] | 117 |
| CN(Cc1cnc2nc(N)nc(N)c2n1)c1ccc(C(=O)N[C@@H](CCC(=O)O)C(=O)O)cc1 [Methotrexate] | 45.4 |
| CN(CCOc1ccc(Cc2sc(O)nc2O)cc1)c1ccccn1 [Rosiglitazone] | 105 |

Same assay, conditions: 100 nM; 72 h

| Structure (SMILES) | cell viability [%] |
| --- | --- |
| O=c1cc(N2CCOCC2)oc2c(-c3ccccc3)cccc12 | 0.364 |
| O=C1C(SCCO)=C(SCCO)C(=O)c2ccccc21 | 83.9 |
| Cn1cc(-c2ccncc2)c(-c2ccc(OCc3ccc4ccccc4n3)cc2)n1 | 91.5 |
| O=C(O)CC[N+](=O)[O-] [3-nitropropionic acid] | 87.2 |
| O=C(/C=C/c1ccc(O)c(O)c1)OCCc1ccccc1 [Caffeic acid phenethyl ester] | 111 |
| CCN(CC)C(=S)SSC(=S)N(CC)CC [Disulfiram] | 98.3 |
| c1cc(-c2cnn3cc(-c4ccc(OCCN5CCCCC5)cc4)cnc23)ccn1 [Dorsomorphin] | 97.4 |
| CN(Cc1cnc2nc(N)nc(N)c2n1)c1ccc(C(=O)N[C@@H](CCC(=O)O)C(=O)O)cc1 [Methotrexate] | 3.4 |
| CN(CCOc1ccc(Cc2sc(O)nc2O)cc1)c1ccccn1 [Rosiglitazone] | 105 |

Same assay, conditions: 1000 nM; 72 h

| Structure (SMILES) | cell viability [%] |
| --- | --- |
| O=c1cc(N2CCOCC2)oc2c(-c3ccccc3)cccc12 | -0.297 |
| O=C1C(SCCO)=C(SCCO)C(=O)c2ccccc21 | 0.103 |
| Cn1cc(-c2ccncc2)c(-c2ccc(OCc3ccc4ccccc4n3)cc2)n1 | 76.5 |
| O=C(O)CC[N+](=O)[O-] [3-nitropropionic acid] | 99.5 |
| O=C(/C=C/c1ccc(O)c(O)c1)OCCc1ccccc1 [Caffeic acid phenethyl ester] | 65 |
| CCN(CC)C(=S)SSC(=S)N(CC)CC [Disulfiram] | 88.7 |
| c1cc(-c2cnn3cc(-c4ccc(OCCN5CCCCC5)cc4)cnc23)ccn1 [Dorsomorphin] | 99.8 |
| CN(Cc1cnc2nc(N)nc(N)c2n1)c1ccc(C(=O)N[C@@H](CCC(=O)O)C(=O)O)cc1 [Methotrexate] | 2.47 |
| CN(CCOc1ccc(Cc2sc(O)nc2O)cc1)c1ccccn1 [Rosiglitazone] | 95 |

Same assay, conditions: 10000 nM; 72 h

| Structure (SMILES) | cell viability [%] |
| --- | --- |
| O=c1cc(N2CCOCC2)oc2c(-c3ccccc3)cccc12 | -0.0959 |
| O=C1C(SCCO)=C(SCCO)C(=O)c2ccccc21 | -0.335 |
| Cn1cc(-c2ccncc2)c(-c2ccc(OCc3ccc4ccccc4n3)cc2)n1 | 7.29 |
| O=C(O)CC[N+](=O)[O-] [3-nitropropionic acid] | 0.752 |
| O=C(/C=C/c1ccc(O)c(O)c1)OCCc1ccccc1 [Caffeic acid phenethyl ester] | 0.624 |
| CCN(CC)C(=S)SSC(=S)N(CC)CC [Disulfiram] | 53.5 |
| c1cc(-c2cnn3cc(-c4ccc(OCCN5CCCCC5)cc4)cnc23)ccn1 [Dorsomorphin] | 89.1 |
| CN(Cc1cnc2nc(N)nc(N)c2n1)c1ccc(C(=O)N[C@@H](CCC(=O)O)C(=O)O)cc1 [Methotrexate] | 3.21 |
| CN(CCOc1ccc(Cc2sc(O)nc2O)cc1)c1ccccn1 [Rosiglitazone] | 93.5 |

These molecules were tested on myeloid leukemia patient primary cells Pat.7 (assay: cell viability (% survival relative to DMSO control); higher = less cytotoxic). Details: 1 nM; 72 h.
Procedure, shortened: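 Thawed, Ficoll-purified mononuclear cells from AML or CML patients in RPMI 1640 with 10% FBS were seeded at 10,000 cells/well on 384-well plates pre-printed with 70 compounds at five tenfold concentrations, 1–10,000 nM, in duplicate, for 72 h. Viability was read by CellTiter-Glo and normalised to DMSO and 10 μM proteasome-inhibitor wells. Where given, area under the curve came from four-parameter log-logistic fits (drc, PharmacoGx R packages).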

| Structure (SMILES) | cell viability [%] |
| --- | --- |
| O=c1cc(N2CCOCC2)oc2c(-c3ccccc3)cccc12 | 84.4 |
| O=C1C(SCCO)=C(SCCO)C(=O)c2ccccc21 | 37.3 |
| Cn1cc(-c2ccncc2)c(-c2ccc(OCc3ccc4ccccc4n3)cc2)n1 | 90.5 |
| O=C(O)CC[N+](=O)[O-] [3-nitropropionic acid] | 98.1 |
| O=C(/C=C/c1ccc(O)c(O)c1)OCCc1ccccc1 [Caffeic acid phenethyl ester] | 74.4 |
| CCN(CC)C(=S)SSC(=S)N(CC)CC [Disulfiram] | 83.4 |
| c1cc(-c2cnn3cc(-c4ccc(OCCN5CCCCC5)cc4)cnc23)ccn1 [Dorsomorphin] | 25.4 |
| CN(Cc1cnc2nc(N)nc(N)c2n1)c1ccc(C(=O)N[C@@H](CCC(=O)O)C(=O)O)cc1 [Methotrexate] | 94.1 |
| CN(CCOc1ccc(Cc2sc(O)nc2O)cc1)c1ccccn1 [Rosiglitazone] | 62.7 |

Same assay, conditions: 10 nM; 72 h

| Structure (SMILES) | cell viability [%] |
| --- | --- |
| O=c1cc(N2CCOCC2)oc2c(-c3ccccc3)cccc12 | 64.8 |
| O=C1C(SCCO)=C(SCCO)C(=O)c2ccccc21 | 96.4 |
